Measured values taken from the NIST ThermoML archive (doi:10.1021/je300945r).

F/C=C/C(F)(F)F [trans-1,3,3,3-tetrafluoropropene]
Details | mass density [kg/m3]
353.15 K, 22889 kPa, Liquid, Vibrating tube method | 1115.7
353.15 K, 24907 kPa, Liquid, Vibrating tube method | 1124.7
353.15 K, 25928 kPa, Liquid, Vibrating tube method | 1129.2
353.15 K, 26934 kPa, Liquid, Vibrating tube method | 1133.3
353.15 K, 27950 kPa, Liquid, Vibrating tube method | 1137.5
353.15 K, 28953 kPa, Liquid, Vibrating tube method | 1141.4
353.15 K, 29957 kPa, Liquid, Vibrating tube method | 1145.2
353.15 K, 31977 kPa, Liquid, Vibrating tube method | 1152.7
353.15 K, 32983 kPa, Liquid, Vibrating tube method | 1156.3
353.15 K, 33998 kPa, Liquid, Vibrating tube method | 1159.9
353.16 K, 2681 kPa, Liquid, Vibrating tube method | 945.9
353.16 K, 3704 kPa, Liquid, Vibrating tube method | 964.9
353.16 K, 4723 kPa, Liquid, Vibrating tube method | 980.5
353.16 K, 5740 kPa, Liquid, Vibrating tube method | 994
353.16 K, 6749 kPa, Liquid, Vibrating tube method | 1005.9
353.16 K, 7775 kPa, Liquid, Vibrating tube method | 1016.7
353.16 K, 8789 kPa, Liquid, Vibrating tube method | 1026.5
353.16 K, 10794 kPa, Liquid, Vibrating tube method | 1043.6
353.16 K, 11799 kPa, Liquid, Vibrating tube method | 1051.4
353.16 K, 13815 kPa, Liquid, Vibrating tube method | 1065.7
353.16 K, 14816 kPa, Liquid, Vibrating tube method | 1072.2
353.16 K, 17837 kPa, Liquid, Vibrating tube method | 1090.2
353.16 K, 20878 kPa, Liquid, Vibrating tube method | 1106.1
353.16 K, 23896 kPa, Liquid, Vibrating tube method | 1120.3
362.94 K, 86.6 kPa, Gas, isochoric method | 3.3
362.94 K, 316.2 kPa, Gas, isochoric method | 12.346
362.94 K, 316.3 kPa, Gas, isochoric method | 12.346
362.95 K, 473.2 kPa, Gas, isochoric method | 18.868
362.96 K, 197.6 kPa, Gas, isochoric method | 7.634
362.96 K, 473.2 kPa, Gas, isochoric method | 18.868
362.96 K, 540 kPa, Gas, isochoric method | 21.739
362.96 K, 695.3 kPa, Gas, isochoric method | 28.571
362.97 K, 899.7 kPa, Gas, isochoric method | 38.462
362.97 K, 987.6 kPa, Gas, isochoric method | 43.478
362.98 K, 766.3 kPa, Gas, isochoric method | 32.258
362.98 K, 987.6 kPa, Gas, isochoric method | 43.478
372.89 K, 557 kPa, Gas, isochoric method | 21.739
372.9 K, 89.1 kPa, Gas, isochoric method | 3.3
372.9 K, 325.6 kPa, Gas, isochoric method | 12.346
372.9 K, 557 kPa, Gas, isochoric method | 21.739
372.91 K, 203.3 kPa, Gas, isochoric method | 7.634
372.92 K, 792.3 kPa, Gas, isochoric method | 32.258
372.93 K, 488 kPa, Gas, isochoric method | 18.868
372.95 K, 1023.8 kPa, Gas, isochoric method | 43.478
372.95 K, 1023.9 kPa, Gas, isochoric method | 43.478
372.96 K, 931.7 kPa, Gas, isochoric method | 38.462
372.97 K, 718.5 kPa, Gas, isochoric method | 28.571
372.97 K, 718.6 kPa, Gas, isochoric method | 28.571
